Test system: male Wistar rats
Assay: Antiinflammatory activity by air pouch technique (croton oil)
Type: in vivo
Settings: Rattus norvegicus, 192 h, 25 mg/kg/day into the pouch in 5% gum arabic, once a day for 6 days, amount of exudate on day 8 vs control group, ** p<0.01, * p<0.05, read-out: Antiinflammatory rate (%)
Description: The antiinflammatory activity of the compound of the invention was determined by an air pouch technique generally comforming to the method described in the literature [Proc. Soc. Exp. Biol. Med., 82 , 328-333, 1953].
The test was carried out using male Wistar rats (average body weight 200 g, 7 animals per group). A thick paper sheet with an oval cutout (2 x 5 cm) was attached to the clipped back of the animal under pentobarbital anesthesia. The skin was picked up through the central cutout and 10 ml of air was injected subcutaneously to prepare an air pouch. Then, 1 ml of 2% croton oil, as a phlogogenic agent, was injected into the pouch. The paper sheet was removed and the animal was gently rotated in order that the croton oil would be thoroughly contacted with the inner wall of the pouch.
The test compound suspended in 5% gum arabic was administered into the pouch (25 mg/kg/day) once a day for 6 days beginning the day after preparation of the pouch. The group of animals subjected to the above treatment was designated as the experimental group.
On day 8, the animals were bled to death and the amount (ml) of exudate in the pouch was measured. The antiinflammatory rate was calculated with the result in the control group ( a group not receiving the test compound) as a reference according to the following equation. [formula]

Compound | inhibition in vivo at 25 mg/kg/day [%]
CC(C)(C)c1cc(Nc2cnccn2)cc(C(C)(C)CO)c1O [Compound 1, 2-(1,1-dimethylethyl)-6-(1,1-dimethyl-2-hydroxyethyl)-4-pyrazinylaminophenol] | 68
CC(C)(C)c1cc(Nc2nccs2)cc(C(C)(C)CO)c1O [Compound 3, 2-(1,1-Dimethylethyl)-6-(1,1-dimethyl-2-hydroxyethyl)-4-[N-(2-thiazolyl)amino]phenol] | 71
CC(C)(C)c1cc(Nc2ccccc2)cc(C(C)(C)CO)c1O [Compound 6] | 14
CC(C)(C)c1cc(Nc2cccnc2)cc(C(C)(C)CO)c1O [Compound 8] | 19
CC(C)(C)c1cc(Nc2ncccn2)cc(C(C)(C)CO)c1O [Compound 10] | 24
CC(C)(C)c1cc(Nc2nccnn2)cc(C(C)(C)CO)c1O [Compound 11] | 20
CC(=O)OCC(C)(C)c1cc(Nc2nccs2)cc(C(C)(C)C)c1O [Compound 13, 2-(2-acetoxy-1,1-dimethylethyl)-6-(1,1-dimethylethyl)-4-(2-thiazolylamino)phenol] | 60
CC(=O)OCC(C)(C)c1cc(N(C(C)=O)c2nccs2)cc(C(C)(C)C)c1O [Compound 14, 2-(2-acetoxy-1,1-dimethylethyl)-6-(1,1-dimethylethyl)-4-[N-acetyl-N-(2-thiazolyl)amino]phenol] | 51
CC(C)(C)c1cc(Nc2nc(CC(=O)O)cs2)cc(C(C)(C)CO)c1O [Compound 15, 2-[3-(1,1-dimethylethyl)-5-(1,1-dimethyl-2-hydroxyethyl)-4-hydroxyphenylamino]-4-thiazolylacetic acid] | 32
